Experimental findings from ChEMBL document CHEMBL1201862, “PubChem BioAssay data set” (2004) are described below.

Experiment [1] deals with T1, DNA repair and recombination protein RAD54-like (Homo sapiens, UniProt Q92698).
T1 sequence (Q92698 whole entry): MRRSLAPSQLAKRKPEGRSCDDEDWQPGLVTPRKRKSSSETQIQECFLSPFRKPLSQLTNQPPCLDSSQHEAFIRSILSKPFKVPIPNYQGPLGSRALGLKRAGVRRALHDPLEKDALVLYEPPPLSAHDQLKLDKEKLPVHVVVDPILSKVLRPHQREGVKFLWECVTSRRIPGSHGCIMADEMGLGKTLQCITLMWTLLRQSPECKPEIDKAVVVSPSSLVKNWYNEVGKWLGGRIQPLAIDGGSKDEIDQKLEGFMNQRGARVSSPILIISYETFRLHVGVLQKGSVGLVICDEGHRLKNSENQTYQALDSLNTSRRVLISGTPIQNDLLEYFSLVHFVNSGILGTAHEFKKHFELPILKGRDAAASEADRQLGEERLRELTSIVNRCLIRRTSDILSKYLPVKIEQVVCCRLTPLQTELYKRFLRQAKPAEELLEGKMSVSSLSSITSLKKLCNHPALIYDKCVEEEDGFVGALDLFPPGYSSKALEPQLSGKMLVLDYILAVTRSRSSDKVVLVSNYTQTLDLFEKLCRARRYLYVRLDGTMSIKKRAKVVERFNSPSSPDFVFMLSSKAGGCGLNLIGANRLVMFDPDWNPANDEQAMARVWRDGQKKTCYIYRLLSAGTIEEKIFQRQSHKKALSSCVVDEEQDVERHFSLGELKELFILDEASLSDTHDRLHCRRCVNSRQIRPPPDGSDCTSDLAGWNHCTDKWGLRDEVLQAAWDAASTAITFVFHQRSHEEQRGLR
Briefly: inhibitors of human RAD54 branch migration, confirmation, biochemical, fluorescence, cherry-picked samples, dose series (AID 651657). In kind it is functional.

Experiment [2] addresses T2, Ubiquitin-conjugating enzyme E2 N (Homo sapiens, UniProt P61088).
T2 sequence (P61088 whole entry): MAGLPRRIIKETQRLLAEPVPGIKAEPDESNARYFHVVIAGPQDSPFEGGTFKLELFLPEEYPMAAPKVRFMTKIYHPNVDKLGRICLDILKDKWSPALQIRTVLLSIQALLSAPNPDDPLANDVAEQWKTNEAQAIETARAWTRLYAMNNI
In kind it is functional.

Experiment [3] is described as follows: inhibitors of intracellular T. cruzi replication, confirmation, NIH3T3 host cells, beta-gal luminescence (AID 2044).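 Further: intracellular parasites grown in NIH/3T3 mouse fibroblasts as host cells; luminescent beta-galactosidase reporter signal from transgenic T. cruzi replicating inside host cells; inhibitors lower the luminescence signal.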 It is filed as functional, cell-based.
Experiment [4] in a line: MDA-MB-231 cell growth inhibition, dose response, cytotoxicity control for RAD54 inhibitor project, CellTiter-Glo luminescence, cherry-pick (AID 651692). In kind it is functional, cell-based.
Experiment [5] deals with Streptococcus. Briefly: Group A Streptococcus viability loss, dose response, counter-screen for streptokinase expression inhibitor project, luminescence, BacTiterGlo (AID 1915).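 Further: potency for reduction of bacterial viability or growth.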 It is filed as functional, organism-based. (The purpose of a counterscreen is to sort out artefacts and off-target activity.)
Experiment [6] can be described thus: cytotoxicity toward NIH3T3 fibroblasts, dose response, counter-screen, cell-based, ATP luminescence, mouse fibroblasts (AID 2010).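 Further: cells exposed to compound for about 90 hours before reading.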 It is filed as functional.
The target of experiment [7] is T2, Ubiquitin-conjugating enzyme E2 N. It is filed as functional. The source holds these as a separate data set.
Experiment [8] has as its system Streptococcus sp. 'group A'. Briefly: growth inhibition of control SK(-) GAS strain, dose response, counter-screen for streptokinase expression inhibitor project, luminescence, kanamycin, BacTiterGlo, confirmation (AID 1900). It is filed as functional, organism-based.
Experiment [9] addresses Bcl-2-related protein A1 (Mus musculus, UniProt Q07440). It is filed as functional.
The target in experiment [10] is SWI/SNF-related matrix-associated actin-dependent regulator of chromatin subfamily A member 2 (Homo sapiens, UniProt P51531). The experiment can be described thus: Luminescence-based cell-based high throughput dose response assay to identify activators of the function of SWI/SNF related, matrix associated, actin dependent regulator of chromatin, subfamily a, member 2 (SMARCA2, BRM). In kind it is functional.
SWI/SNF-related matrix-associated actin-dependent regulator of chromatin subfamily A member 2, sequence (P51531 whole entry): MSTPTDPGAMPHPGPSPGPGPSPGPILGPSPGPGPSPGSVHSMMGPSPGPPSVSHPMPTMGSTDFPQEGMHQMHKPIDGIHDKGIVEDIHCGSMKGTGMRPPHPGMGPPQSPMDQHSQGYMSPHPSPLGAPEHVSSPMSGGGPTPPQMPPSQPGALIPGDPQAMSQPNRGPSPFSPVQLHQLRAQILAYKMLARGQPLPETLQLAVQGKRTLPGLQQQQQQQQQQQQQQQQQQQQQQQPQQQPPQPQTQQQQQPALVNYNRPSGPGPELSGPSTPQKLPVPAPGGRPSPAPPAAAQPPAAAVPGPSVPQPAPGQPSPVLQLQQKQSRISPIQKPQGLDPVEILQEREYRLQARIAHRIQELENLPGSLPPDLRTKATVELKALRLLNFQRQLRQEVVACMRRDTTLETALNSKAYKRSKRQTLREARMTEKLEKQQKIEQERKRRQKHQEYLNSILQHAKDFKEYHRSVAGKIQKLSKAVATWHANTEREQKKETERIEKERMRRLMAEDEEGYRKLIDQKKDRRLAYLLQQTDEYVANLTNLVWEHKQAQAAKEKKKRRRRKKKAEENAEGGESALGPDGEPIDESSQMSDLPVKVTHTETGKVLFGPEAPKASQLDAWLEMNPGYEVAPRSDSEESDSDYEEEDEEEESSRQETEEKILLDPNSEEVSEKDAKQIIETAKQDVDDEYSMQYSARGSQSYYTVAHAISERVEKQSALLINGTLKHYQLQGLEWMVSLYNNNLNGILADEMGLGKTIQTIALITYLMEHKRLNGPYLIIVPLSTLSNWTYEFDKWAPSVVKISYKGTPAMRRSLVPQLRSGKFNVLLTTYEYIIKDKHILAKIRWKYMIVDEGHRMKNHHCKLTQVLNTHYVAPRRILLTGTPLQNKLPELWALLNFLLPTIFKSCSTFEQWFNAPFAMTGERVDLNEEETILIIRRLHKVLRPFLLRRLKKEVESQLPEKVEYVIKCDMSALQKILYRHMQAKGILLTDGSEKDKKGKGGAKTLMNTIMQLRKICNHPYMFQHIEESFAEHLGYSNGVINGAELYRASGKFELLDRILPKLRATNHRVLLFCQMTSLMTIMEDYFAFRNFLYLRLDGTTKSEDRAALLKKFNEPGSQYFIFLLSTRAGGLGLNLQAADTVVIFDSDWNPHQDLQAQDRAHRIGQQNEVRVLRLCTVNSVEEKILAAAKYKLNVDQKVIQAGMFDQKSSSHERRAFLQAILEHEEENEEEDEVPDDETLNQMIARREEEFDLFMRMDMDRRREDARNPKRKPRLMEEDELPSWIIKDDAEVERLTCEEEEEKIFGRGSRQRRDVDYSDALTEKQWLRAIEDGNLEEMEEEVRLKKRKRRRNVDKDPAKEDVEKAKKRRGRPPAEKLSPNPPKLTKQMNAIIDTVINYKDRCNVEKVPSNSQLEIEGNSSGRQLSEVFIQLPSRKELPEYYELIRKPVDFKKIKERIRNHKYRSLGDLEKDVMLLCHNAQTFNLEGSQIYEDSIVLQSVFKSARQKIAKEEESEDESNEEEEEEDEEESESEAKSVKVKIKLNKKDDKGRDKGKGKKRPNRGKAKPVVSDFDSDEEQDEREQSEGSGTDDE

Experiment [11] has as its system Vero. The experiment can be described thus: cells. It is filed as functional, Chlorocebus sabaeus. The conditions noted are these: Chlorocebus sabaeus, Vero.
Experiment [12] addresses T3, Sentrin-specific protease 1 (Homo sapiens, UniProt Q9P0U3).
T3 sequence (Q9P0U3 whole entry): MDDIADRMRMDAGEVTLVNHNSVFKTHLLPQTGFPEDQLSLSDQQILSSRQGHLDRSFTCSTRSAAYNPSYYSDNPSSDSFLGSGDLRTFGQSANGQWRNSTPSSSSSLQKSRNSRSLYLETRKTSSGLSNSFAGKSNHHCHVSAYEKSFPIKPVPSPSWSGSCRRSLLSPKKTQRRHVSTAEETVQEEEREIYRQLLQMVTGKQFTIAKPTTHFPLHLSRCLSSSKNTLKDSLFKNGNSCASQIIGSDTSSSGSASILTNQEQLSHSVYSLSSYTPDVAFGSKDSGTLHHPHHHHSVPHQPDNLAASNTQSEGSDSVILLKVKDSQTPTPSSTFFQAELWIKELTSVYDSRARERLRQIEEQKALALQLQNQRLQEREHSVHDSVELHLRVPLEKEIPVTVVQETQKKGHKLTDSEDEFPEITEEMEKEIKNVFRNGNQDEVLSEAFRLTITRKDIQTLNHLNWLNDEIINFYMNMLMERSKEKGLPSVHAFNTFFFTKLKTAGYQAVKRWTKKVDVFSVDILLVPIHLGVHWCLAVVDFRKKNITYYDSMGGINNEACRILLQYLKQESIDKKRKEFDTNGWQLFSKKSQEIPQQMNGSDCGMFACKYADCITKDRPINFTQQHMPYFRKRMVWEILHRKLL
Briefly: Dose response confirmation of small molecule inhibitors of the catalytic domain of the SUMO protease, SENP1 in a FRET assay. In kind it is functional. The conditions noted are these: read-out: IC50_Mean.

Experiment [13] is described as follows: Counterscreen for activators of the function of SWI/SNF related, matrix associated, actin dependent regulator of chromatin, subfamily a, member 2 (SMARCA2, BRM): Luminescence-based cell-based high throughput dose response assay to identify non-selective compounds using the VP16 reporter assay. In kind it is functional.
Experiment [14] can be described thus: DNA binding of candidate compounds, dose response, artefact control for RAD54 inhibitor project, biochemical, fluorescence polarization, cherry-pick (AID 651673). It is filed as functional. (In general: Fluorescence polarisation rises when a labelled molecule tumbles more slowly, as on binding a larger partner.)
Experiment [15] deals with T4, DNA repair protein RAD52 homolog (Homo sapiens, UniProt P43351).
T4 sequence (P43351 whole entry): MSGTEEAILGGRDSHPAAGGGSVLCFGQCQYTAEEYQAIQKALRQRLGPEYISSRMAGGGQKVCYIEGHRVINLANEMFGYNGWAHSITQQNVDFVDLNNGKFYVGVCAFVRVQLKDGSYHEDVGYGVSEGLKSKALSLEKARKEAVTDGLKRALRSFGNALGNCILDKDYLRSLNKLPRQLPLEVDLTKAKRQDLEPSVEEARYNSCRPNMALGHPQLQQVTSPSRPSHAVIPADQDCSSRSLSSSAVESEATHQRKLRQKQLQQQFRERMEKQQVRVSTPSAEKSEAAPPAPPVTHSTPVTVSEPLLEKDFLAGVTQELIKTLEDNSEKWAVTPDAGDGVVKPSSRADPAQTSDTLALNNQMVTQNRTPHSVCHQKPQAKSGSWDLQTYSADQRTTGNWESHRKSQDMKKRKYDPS
In kind it is functional, biochemical.

Experiment [16] has as its target T3, Sentrin-specific protease 1. Briefly: potency of human SENP1 inhibitors, dose response, biochemical, kinetic FRET (AID 651697). It is filed as functional. As to conditions: read-out: IC50_Mean.
The target of experiment [17] is T5, Low molecular weight phosphotyrosine protein phosphatase (Homo sapiens, UniProt P24666). It is filed as functional. As to conditions: read-out: IC50_Mean.
T5 sequence (P24666 whole entry, the tested form may be a part): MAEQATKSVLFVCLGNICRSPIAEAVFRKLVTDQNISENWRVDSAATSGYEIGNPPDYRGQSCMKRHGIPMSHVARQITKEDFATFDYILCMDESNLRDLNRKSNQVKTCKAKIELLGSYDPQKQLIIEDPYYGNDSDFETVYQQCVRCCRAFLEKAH
In experiment [18] the target is T6, Carboxy-terminal domain RNA polymerase II polypeptide A small phosphatase 1 (Homo sapiens, UniProt Q9GZU7).
T6 sequence (Q9GZU7 whole entry): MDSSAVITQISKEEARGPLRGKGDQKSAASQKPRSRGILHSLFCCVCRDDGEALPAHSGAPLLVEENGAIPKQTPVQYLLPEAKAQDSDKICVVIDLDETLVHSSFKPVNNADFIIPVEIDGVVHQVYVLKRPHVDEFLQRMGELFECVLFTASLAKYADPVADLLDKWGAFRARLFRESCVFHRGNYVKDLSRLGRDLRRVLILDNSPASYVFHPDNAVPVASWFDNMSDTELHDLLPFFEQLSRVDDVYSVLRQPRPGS
Briefly: inhibitors of CTDSP1, concentration-response testing, biochemical assay, absorbance-based, actives from ultra-high-throughput screening (AID 540297). It is filed as functional.

Experiment [19] deals with T7, Tyrosine-protein phosphatase non-receptor type 22 (Homo sapiens, UniProt Q9Y2R2).
T7 sequence (Q9Y2R2 whole entry): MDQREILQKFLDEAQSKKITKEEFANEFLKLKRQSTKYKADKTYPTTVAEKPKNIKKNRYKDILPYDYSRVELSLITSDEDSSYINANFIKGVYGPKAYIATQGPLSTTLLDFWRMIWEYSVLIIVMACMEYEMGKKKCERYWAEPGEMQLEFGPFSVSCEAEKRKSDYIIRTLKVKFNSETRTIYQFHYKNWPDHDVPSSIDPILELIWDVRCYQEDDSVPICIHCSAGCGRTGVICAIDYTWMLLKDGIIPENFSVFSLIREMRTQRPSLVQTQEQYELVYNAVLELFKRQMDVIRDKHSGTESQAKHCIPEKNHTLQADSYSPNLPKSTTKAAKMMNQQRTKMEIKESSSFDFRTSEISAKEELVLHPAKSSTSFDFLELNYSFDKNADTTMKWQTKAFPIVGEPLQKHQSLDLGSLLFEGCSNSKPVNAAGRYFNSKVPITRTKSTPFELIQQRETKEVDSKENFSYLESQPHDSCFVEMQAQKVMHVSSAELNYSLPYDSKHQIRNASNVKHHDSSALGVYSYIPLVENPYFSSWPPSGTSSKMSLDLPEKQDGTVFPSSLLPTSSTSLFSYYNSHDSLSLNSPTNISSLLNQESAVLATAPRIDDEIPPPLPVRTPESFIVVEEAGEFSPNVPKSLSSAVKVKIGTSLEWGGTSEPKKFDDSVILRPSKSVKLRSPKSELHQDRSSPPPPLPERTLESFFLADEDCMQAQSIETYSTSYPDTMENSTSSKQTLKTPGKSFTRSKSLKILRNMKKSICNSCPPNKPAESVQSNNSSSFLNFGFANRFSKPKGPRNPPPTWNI
Briefly: LYP phosphatase inhibition for selectivity, dose response, selectivity assay for LMPTP inhibitor project, biochemical, fluorescence, LYP catalytic domain (AID 652006). It is filed as functional. As to conditions: read-out: IC50_Mean.

Experiment [20] addresses T5, Low molecular weight phosphotyrosine protein phosphatase. In kind it is functional. The conditions noted are these: read-out: IC50_Mean. The source holds these as a separate data set.

Each structure is given as a SMILES string. Activity calls are given as the source filed them.

Broadly, the AC50 is the concentration at which the activity in the assay is half-maximal. The EC50 is the concentration giving half of the maximal effect. What is called CC50 is the concentration at which the toxic effect on the cells reaches its halfway point.

Bcl-2-related protein A1, sequence (Q07440 whole entry): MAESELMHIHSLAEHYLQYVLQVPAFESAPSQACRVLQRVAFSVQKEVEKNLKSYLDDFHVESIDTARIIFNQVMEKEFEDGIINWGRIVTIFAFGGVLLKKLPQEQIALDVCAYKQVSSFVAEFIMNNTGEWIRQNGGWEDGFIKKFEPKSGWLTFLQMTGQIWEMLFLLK

On to `CN(C)CCCn1c(SCC(=O)Nc2nc(-c3cccc(Br)c3)cs2)nc2ccccc2c1=O`, for which the AC50 is 95.9 µM (active) in experiment [1] and 13.9 µM (active) in experiment [4]. Moreover, the IC50 is 5.58 µM (active) in [2], 5.29 µM (active) in experiment [7] and 13.1 µM (active) in [9]. Also, the 50% effective concentration (EC50) in experiment [3] is 1.66 µM (active); in experiment [5] it was 6.99 µM (active); in [6] it was 4.52 µM (active); in experiment [8], 3.17 µM (active).

Consider `CCN(CC)CCNc1ccc(CO)c2oc3cc(Cl)ccc3c(=O)c12`, for which the figures for the AC50 in experiment [1], in [14] and in experiment [15] were 10.2 µM (active), 63.1 µM (active) and 12.5 µM (active), respectively. Besides, the EC50 in experiment [10] and in experiment [13] was > 91.2 µM (inactive) throughout. In experiment [11], the CC50 was 16.7 µM (active). The results for the IC50 in [12] and in experiment [16] were 24 µM (inactive) and 19.8 µM (active), respectively.

For `O=C(CCN1C(=O)/C(=C/c2ccc3c(c2)OCO3)SC1=S)Nc1ccc(C(=O)O)cc1`, the IC50 in experiment [17] was 8.74 µM (active); in experiment [18], 2.3 µM (active); in experiment [19] it was 12.9 µM (active); in experiment [20] it was 16.2 µM (active).
